According to patent publication US10889569B2, “Condensed ring group azacyclobutyl triazole derivative, preparation method therefor and use thereof in medicine” (Jiangsu Hengrui Medicine Co., Ltd., priority 2016, dated 2021):

How the values were obtained:
human OTR = human OTR (Homo sapiens, UniProt P30559); test: Inhibition activity on human OTR (Fluo-4 calcium assay, HEK293/human OTR stably transfected cells); type: cell-based; details: oxytocin 3 nM
In short: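 HEK293 cells stably expressing human OTR, loaded with Fluo-4 for 30 min at 37 °C, were preincubated 10 min at room temperature with compound (stocks 10^1–10^6 nM). Oxytocin (3 nM as added) then triggered calcium signal, read immediately at 494/516; IC50 fitted from fluorescence versus concentration.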

[1] = Pharmacokinetics assay in rats after intragastrical administration; type: in vivo, SD rats; details: Sprague-Dawley, rat, plasma, po, 30 mg/kg, intragastric, male rats; for Vd/F: read-out: Apparent distribution volume Vz/F; for AUC: read-out: Area under curve AUC; for CL/F: read-out: Clearance CLz/F; for half-life: read-out: Half-life T1/2 (converted); for Cmax: read-out: Plasma concentration Cmax; for MRT: read-out: Residence time MRT
Procedure: Male SD rats were used as test animals. The drug concentration in plasma at different time points was determined by LC/MS/MS method after intragastrical administration of the compounds of Examples 2, 17, 34, 37, 38, 39 and 43 to rats. The pharmacokinetic behavior of the compounds of the present invention was studied and evaluated in rats.
Twenty-one healthy adult male Sprague-Dawley (SD) rats were purchased from Shanghai Jiesijie Laboratory Animal Co., LTD, with Certificate No.: SCXK (Shanghai) 2013-0006, and equally divided into 7 groups (3 rats per group).
A certain amount of the test compound was weighed, and added with 2.5% by volume of DMSO and 97.5% by volume of 10% solutol HS-15 to formulate a […] colorless, clear and transparent solution.
After an overnight fast, SD rats were administered intragastrically the test compounds at an administration dosage of 30.0 mg/kg and an administration volume of 10.0 mL/kg.
The rats were intragastrically administered the compounds of Examples 2, 17, 34, 37, 38, 39 and 43. 0.2 mL of blood was taken from the orbital sinus before administration and at 0.5, 1.0, 2.0, 4.0, 6.0, 8.0, 11.0 and 24.0 hours after administration. The samples were stored in heparinized tubes, and centrifuged for 10 minutes at 4° C. at 3500 rpm to separate the plasma. The plasma samples were stored at −20° C. The rats were fed 2 hours after administration.
The content of the test compounds in the plasma of rats after intragastrical administration of the test compounds at different concentrations was determined: 50 μL of rat plasma at each time after administration was taken, added with 50 μL of the internal standard solution of camptothecin (100 ng/mL) and 150 μL of acetonitrile, vortex-mixed for 5 minutes, and centrifuged for 10 minutes (4000 rpm). 3 μL of the supernatant was taken from the plasma samples for LC/MS/MS analysis.

human V1bR = human V1bR (Homo sapiens, UniProt P47901); test: Inhibition activity on human V1bR (Fluo-4 calcium assay, HEK293/human V1bR pool cells); type: cell-based; details: vasopressin 3 nM
Procedure: The inhibition effect of the compounds of the present invention on the activity of human V1bR protein expressed in HEK293/human V1bR cells was determined by the following experimental method:
The pcDNA3.1-V1bR plasmid was transferred into HEK293 cells with the Lipofectamine® 3000 transfection reagent; G418 was added on the next day, and the HEK293/human V1bR pool cell lines were obtained.
HEK293/human V1bR pool cells were inoculated in a 96-well plate with an inoculation density of 25,000 cells/well one day in advance. On the next day, a loading buffer containing Fluo-4 dye was formulated using the reagents in the Fluo-4 NW calcium assay kit, and the culture medium was then removed; 100 μl of the loading buffer containing Fluo-4 dye were added to each well, and the plate was incubated at 37° C. for 30 minutes. After that, the plate was moved to room temperature and equilibrated for 10 minutes. The compounds were formulated into 10^6, 10^5, 10^4, 10^3, 10^2 and 10^1 nM. 1 μl of the compounds in each concentration was added to each well, and the plate was incubated at room temperature for 10 minutes. 50 μl of vasopressin polypeptide (3 nM) were automatically added by the machine, and the values were immediately detected at 494/516 nM by the flexstation 3 microplate reader. IC50 values of the compounds were calculated by Graphpad prism software using fluorescence signals corresponding to different concentrations.
The inhibition activity of the compounds of the present invention on human V1bR was determined by the above test, and the obtained IC50 values are shown in Table 3.

human V1aR = human V1aR (Homo sapiens (Human), UniProt P37288); test: Inhibition activity on human V1aR (Fluo-4 calcium assay, HEK293/human V1aR stably transfected cells); type: cell-based; details: vasopressin 3 nM
human V1aR, sequence (P37288 whole entry): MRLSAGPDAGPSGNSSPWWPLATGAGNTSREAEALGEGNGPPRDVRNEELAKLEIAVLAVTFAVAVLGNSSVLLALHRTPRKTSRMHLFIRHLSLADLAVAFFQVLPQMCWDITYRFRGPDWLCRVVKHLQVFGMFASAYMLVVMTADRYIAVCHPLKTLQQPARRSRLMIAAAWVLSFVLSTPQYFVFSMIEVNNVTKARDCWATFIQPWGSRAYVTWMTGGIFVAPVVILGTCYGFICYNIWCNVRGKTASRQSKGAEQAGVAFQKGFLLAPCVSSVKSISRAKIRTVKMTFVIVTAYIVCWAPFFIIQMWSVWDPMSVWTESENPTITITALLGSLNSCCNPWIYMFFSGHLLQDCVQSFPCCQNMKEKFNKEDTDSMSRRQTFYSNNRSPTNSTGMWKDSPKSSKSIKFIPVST
In short: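 Stable HEK293/human V1aR cells, 25,000 cells/well, loaded with Fluo-4 for 30 minutes at 37° C. then 10 minutes room temperature; compounds (formulated at 10^1–10^6 nM) added 10 minutes before 3 nM vasopressin. Calcium fluorescence read immediately at 494/516; IC50 from concentration–signal curves.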

Row | IC50 (human OTR) [µM] | Vd/F [1] [L/kg] | AUC [1] [ng·h/mL] | CL/F [1] [mL/min/kg] | half-life [1] [h] | Cmax [1] [ng/mL] | MRT [1] [h] | IC50 (human V1bR) [µM] | IC50 (human V1aR) [µM] | Structure (SMILES)
1 | 0.002 | 5.29 ± 3.44 | 8580 ± 3560 | 63.8 ± 26.5 | 0.91 ± 0.25 | 3930 ± 3030 | 2.46 ± 1.44 | 26 | 4.5 | COCc1nnc(N2CC(c3cccc4cc(F)ccc34)C2)n1-c1ccc(OC)nc1 [Example 2, 5-(3-(3-(6-Fluoronaphthalen-1-yl)azetidin-1-yl)-5-(methoxymethyl)-4H-1,2,4-triazol-4-yl)-2-methoxypyridine]
2 | 0.064 | 13.7 ± 3.83 | 11200 ± 4390 | 48 ± 19 | 3.35 ± 0.399 | 2020 ± 580 | 5.08 ± 0.552 | 19.8 | 4.4 | COCc1nnc(N2CC(n3cc(C)c4cc(F)ccc43)C2)n1-c1ccc(OC)nc1 [Example 17, 5-Fluoro-1-(1-(5-(methoxymethyl)-4-(6-methoxypyridin-3-yl)-4H-1,2,4-triazol-3-yl)azetidin-3-yl)-3-methyl-1H-indole]
